Experimental data from patent US4599336A, “Derivatives of (E)-3-(4-oxo-4H-quinazolin-3-yl)-2-propenamide” (Hoffmann-La Roche Inc., priority 1983, dated 1986).

Tests used:
Δ^5 -Lipoxygenase = target: T1, Δ^5 -Lipoxygenase (Rattus norvegicus, UniProt P12527); experiment: Δ^5 -Lipoxygenase Inhibition; type: biochemical; details: RBL-1 cell supernatant; for inhibition at 10 µM: at 10^-5 M
T1 construct: using rat basophil leukemia cells (RBL-1 cells) as the enzyme source; endogenous in cells; host or cells: RBL-1 (rat basophil leukemia) cells, 49,300×g supernatant of homogenate
T1 sequence (P12527 1-673): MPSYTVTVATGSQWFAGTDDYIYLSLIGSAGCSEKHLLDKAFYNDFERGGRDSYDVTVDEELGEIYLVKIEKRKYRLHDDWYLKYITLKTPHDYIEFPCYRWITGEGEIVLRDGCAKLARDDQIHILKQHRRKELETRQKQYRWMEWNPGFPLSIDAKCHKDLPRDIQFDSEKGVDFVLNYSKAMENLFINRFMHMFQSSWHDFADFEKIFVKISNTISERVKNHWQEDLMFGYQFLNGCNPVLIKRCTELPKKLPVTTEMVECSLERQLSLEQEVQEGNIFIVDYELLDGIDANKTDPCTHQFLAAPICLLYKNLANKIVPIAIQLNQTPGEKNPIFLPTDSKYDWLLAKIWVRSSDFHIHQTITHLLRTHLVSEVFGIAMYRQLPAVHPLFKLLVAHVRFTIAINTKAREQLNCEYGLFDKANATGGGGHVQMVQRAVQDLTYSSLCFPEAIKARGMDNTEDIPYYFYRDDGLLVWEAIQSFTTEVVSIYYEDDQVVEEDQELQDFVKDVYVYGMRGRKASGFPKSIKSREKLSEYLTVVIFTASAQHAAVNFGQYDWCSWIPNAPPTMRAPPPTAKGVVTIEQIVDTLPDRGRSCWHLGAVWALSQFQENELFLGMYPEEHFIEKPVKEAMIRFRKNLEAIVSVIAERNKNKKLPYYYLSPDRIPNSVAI
Method: Δ^5 -Lipoxygenase inhibition was measured by following the conversion of ^14 C-arachidonic acid to ^14 C-5-HETE, using rat basophil leukemia cells (RBL-1 cells) as the enzyme source. These cells were maintained in stationary stock cultures and grown in spinner cultures prior to isolation by centrifugation at 4° C. at 1,500×g for 10 minutes. The cells were washed three times at 4° C. with 0.05M Tris HCl (ph 7.2) containing 1 mM EDTA, 14 μM indomethacin and 0.9% NaCl. They were then homogenized at 0°-4° C. using a glass/glass homogenizer in 0.05M Tris-HCl (pH 7.2) containing 1 mM EDTA and 14 μM indomethacin. The homogenate was then centrifuged at 49,300×g for 20 minutes (0°-4° C.) and the resulting supernatant frozen in small aliquots in a dry ice/acetone bath prior to storage at -80° C. Under these conditions, the enzyme was stable to freezing and thawing and to preincubation for 10 minutes at 30° C.
For enzyme assay, 100-200 μl of enzyme was incubated in the presence and absence of test compound (prepared in DMSO) for 10 minutes at 30° C. in 0.05M Tris-HCl buffer (pH 7.2) containing 1 mM glutathione, 2 mM CaCl2, 14 μM indomethacin and 0.25 and 0.5 mM EDTA (final volume 400 μl). The final DMSO concentration in these assays was 4%. The assay was initiated by the addition of 100 μl ^14 C-arachidonic acid (58 mCi/mmole) and incubations were carried out for 10 minutes at 37° C. in a shaking water bath. The reactions were stopped by the simultaneous addition of 4.0 ml of diethylether and 100 μl of 1.0 m citric acid, while the tubes were vigorously vortexed. The ^14 C-5-HETE generated by the enzyme was extracted into the acidified ether layer which was separated from the aqueous layer by freezing the assay tubes in a dry ice/acetone bath prior to decanting the liquid ether layer. The ether layer was evaporated to dryness under N2, the residue dissolved in 65 μl chloroform:methanol (2:1 v/v), prior to separating ^14 C-5-HETE from other ^14 C-labeled compounds on silica gel impregnated glass fiber TLC plates utilizing an elution solvent of isoctane:methylethylketone:acetic acid (100:9:1 v/v). ^14 C-5-HETE was identified by its co-chromatography with a chemically synthesized standard. The radioactive peaks of the chromatogram were cut out and the radioactivity was quantitated by liquid scintillation counting. The amount of 5-HETE obtained per sample was expressed as the percent of total and was calculated in the basis of: [formula] in order to evaluate the effect of the test compounds, the mean percent inhibition of ^14 C-5-HETE production was calculated. The IC50 for a drug was determined from a linear regression analysis of a plot of the mean percent inhibition vs drug concentration.

[1] = target: T2, PAF receptor (dog platelets) (Canis lupus familiaris, UniProt A0A8I3NSH0); experiment: PAF Radioreceptor Binding Assay; details: 3H-PAF
T2 construct: followed by 2×10^7 dog platelets; from tissue; host or cells: dog platelets, washed, intact
T2 sequence (A0A8I3NSH0 1-343): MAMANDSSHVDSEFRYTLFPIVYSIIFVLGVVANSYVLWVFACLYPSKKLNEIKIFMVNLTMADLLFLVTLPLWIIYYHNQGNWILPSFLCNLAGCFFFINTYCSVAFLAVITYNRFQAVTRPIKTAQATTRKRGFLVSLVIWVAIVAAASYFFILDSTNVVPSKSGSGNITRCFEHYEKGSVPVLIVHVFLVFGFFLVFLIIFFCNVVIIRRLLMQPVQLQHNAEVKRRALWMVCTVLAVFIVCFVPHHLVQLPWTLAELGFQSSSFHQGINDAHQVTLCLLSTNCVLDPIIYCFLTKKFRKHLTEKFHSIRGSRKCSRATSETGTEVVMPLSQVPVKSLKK
Method: Platelet rich plasma is prepared by centrifugation of citrate-treated dog blood. Acidification to pH 6.5 with 0.15M citric acid and centrifugation for 10 minutes at 1000 g yields a platelet pellet which is then washed by resuspension in EDTA-Phosphate Buffered Saline (PBS) and recentrifuged. The washed platelet preparation is adjusted to 2×10^7 platelets/50 μl in 0.1% BSA-PBS.
To a […] microfuge tube containing 50 μl silicone oil (specific gravity 1.023) is added buffer, PAF standard or analog, or an extract to bring the aqueous volume to 150 μl. 50 μl of ^3 H-PAF (10,000 cpm, 45 Ci/mM) is added followed by 2×10^7 dog platelets. After mixing, incubating for 10 minutes at room temperature, and centrifuging for 1 minute in a Beckman Microfuge B (8000 g), the pellet is removed by clipping off the tip of the tube, solubilizing the platelets with 200 μl of 50% methanol, and counting in 10 ml of Aquasol. […] Results obtained with representative compounds of the present invention in this assay are summarized hereinafter in Table I.

inhibition at 10 µM (Δ^5 -Lipoxygenase) | inhibition at 1 µM (Δ^5 -Lipoxygenase; at 10^-6 M) | IC50 [1] | IC50 (Δ^5 -Lipoxygenase) | Structure (SMILES)
84% | 27% | 650 nM | – | CC(C)c1ccc2ncn(/C=C/C(=O)NCCCCc3cccnc3)c(=O)c2c1 [drawing 12]
0% | – | > 1000 nM | – | CC(C)c1ccc2ncn(/C=C/C(=O)NCCCCn3ccnc3)c(=O)c2c1 [drawing 15]
100% | – | > 1000 nM | 800 nM | CC(C)c1ccc2ncn(/C=C/C(=O)NCCCCc3ccccn3)c(=O)c2c1 [drawing 17]
